In patent publication US20240368133A1, “Compounds for the Treatment of Pain, in Particular, Neuropathic Pain, and/or Other Diseases or Disorders that are Associated with AT2R and/or AT2R Mediated Signaling” (Confo Therapeutics N.V., priority 2021, published 2024):
pIC50: −log10 of the molar value.

Columns and labels:
human AT2R fused to Cb23 = human AT2R fused to Cb23 (Homo sapiens, UniProt P50052); assay: Radioligand binding assay, displacement of 125I-[Sar1, Ile8]-Angiotensin II, hAT2R Cb23; conditions: displacement of 125I-[Sar1, Ile8]-Angiotensin II, human AT2R fused to Cb23, HEK-293 cell membrane preparations; read-out: Binding affinity on hAT2R_Cb23 IC50
In short: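 Membranes from HEK-293 cells expressing human AT2R fused to Cb23 were incubated with 0.05 nM 125I-[Sar1, Ile8]-Angiotensin II in 100 μL buffer (50 mM Tris, 5 mM MgCl2, 1 mM EDTA, 0.1% BSA, pH 7.4) for one hour at 25° C. Ligands were tested as eight-point dose-response curves in duplicate, with C21 and Angiotensin II as references.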

human AT1R = human AT1R (Homo sapiens (Human), UniProt P30556); assay: Counterscreen radioligand binding assay, displacement of 125I-[Sar1, Ile8]-Angiotensin II, hAT1R WT; conditions: for inhibition at 1 µM / inhibition at 10 µM: 125I-[Sar1, Ile8]-Ang II, semi-quantitative score; for inhibition at 1 µM: compound at 1 μM, read-out: % Displaced radioligand at 1 μM; for inhibition at 10 µM: compound at 10 μM, read-out: % Displaced radioligand at 10 μM; for pIC50: HEK-293 cell membranes, read-out: Binding affinity On hAT1R IC50
In short: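 Compounds displaced 0.05 nM 125I-[Sar1, Ile8]-Ang II from human AT1R in HEK-293 membranes (1 h, 25° C; Tris/MgCl2/EDTA/BSA buffer, pH 7.4). Readout was filtration and scintillation counting, with non-specific binding set by 10 μM [Sar1]-Ang II. Values are % displacement at 1 μM and […], or IC50 from eight-point four-parameter fits.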

Chain of human AT2R fused to Cb23 (P50052 whole entry, looked up, the tested form may be a part): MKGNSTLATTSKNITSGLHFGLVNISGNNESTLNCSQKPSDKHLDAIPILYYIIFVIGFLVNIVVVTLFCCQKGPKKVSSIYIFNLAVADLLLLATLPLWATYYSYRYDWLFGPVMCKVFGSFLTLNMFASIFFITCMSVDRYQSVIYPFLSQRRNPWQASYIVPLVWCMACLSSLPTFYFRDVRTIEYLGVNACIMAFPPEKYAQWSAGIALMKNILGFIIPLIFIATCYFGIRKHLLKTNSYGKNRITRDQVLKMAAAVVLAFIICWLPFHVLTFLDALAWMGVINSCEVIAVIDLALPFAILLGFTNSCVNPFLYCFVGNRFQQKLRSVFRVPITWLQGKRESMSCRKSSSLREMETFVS
Chain of human AT1R (P30556 whole entry): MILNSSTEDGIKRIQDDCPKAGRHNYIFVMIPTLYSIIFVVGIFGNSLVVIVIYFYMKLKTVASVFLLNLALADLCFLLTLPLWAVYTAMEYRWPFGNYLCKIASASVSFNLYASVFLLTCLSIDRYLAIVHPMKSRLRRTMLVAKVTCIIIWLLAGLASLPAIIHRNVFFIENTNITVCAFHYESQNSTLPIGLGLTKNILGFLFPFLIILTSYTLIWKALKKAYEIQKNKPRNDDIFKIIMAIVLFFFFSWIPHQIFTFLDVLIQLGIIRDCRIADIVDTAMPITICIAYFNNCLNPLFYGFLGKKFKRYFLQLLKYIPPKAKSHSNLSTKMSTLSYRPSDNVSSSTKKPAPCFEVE

pIC50 (human AT2R fused to Cb23) | inhibition at 1 µM (human AT1R) | inhibition at 10 µM (human AT1R) | pIC50 (human AT1R) | SMILES
5.68 | < 30% | < 30% | 4.51 | c1ccc2sc(CN3CCN(c4cc(OCC5CC5)ccc4-c4nn[nH]n4)CC3)nc2c1 [Compound A-54, 2-[[4-[5-(cyclo-propylmethoxy)-2-(2H-tetrazol-5-yl)-phenyl]piperazin-1-yl]methyl]-1,3-benzothiazole]
7.41 | < 30% | < 30% | – | CC(C)Cc1cc(F)c(-c2nn[nH]n2)c(N2CCN(C(C)c3ccccn3)CC2)c1 (stereo not drawn) [Compound A-214, 1-[3-fluoro-5-isobutyl-2-(2H-tetrazol-5-yl)phenyl]-4-[1-(2-pyridyl)ethyl]piperazine]
6.22 | < 30% | < 30% | 4.50 | CCS(=O)(=O)NC(=O)c1ccc(C2CC2)cc1N1CCN(Cc2nc3ccccc3s2)CC1 [Compound A-35, 2-[4-(1,3-benzothiazol-2-ylmethyl)piperazin-1-yl]-4-cyclopropyl-N-ethylsulfonyl-benzamide]
7.92 | < 30% | < 30% | – | CCc1cc(CC(C)C)cc(N2CCN(Cc3nc4ccccc4s3)CC2)c1-c1nn[nH]n1 [Compound A-136, 2-[[4-[3-ethyl-5-isobutyl-2-(2H-tetrazol-5-yl)phen-yl]piperazin-1-yl]-methyl]-1,3-benzo-thiazole]
5.18 | < 30% | < 30% | – | CCS(=O)(=O)NC(=O)c1ccc(OC)cc1N1CCN(Cc2nc3ccccc3s2)CC1 [Compound A-37, 2-[4-(1,3-benzothiazol-2-ylmethyl)piperazin-1-yl]-N-ethylsulfonyl-4-methoxy-benzamide]
4.78 | < 30% | 30 to 50% | 4.60 | c1ccc(N2CCC(Cc3nc4ccccc4s3)CC2)c(-c2nn[nH]n2)c1 [Compound A-06, 2-[[1-[2-(2H-tetrazol-5-yl)phen-yl]-4-piperidyl]-methyl]-1,3-benzo-thiazole]
4.92 | < 30% | < 30% | – | CNc1cc(-c2nn[nH]n2)c(N2CCN(Cc3cccnn3)CC2)cc1CC(C)C [Compound A-170, 2-isobutyl-N-meth-yl-4-[4-(pyridazin-3-ylmethyl)piper-azin-1-yl]-5-(2H-tetrazol-5-yl)aniline]
8.14 | < 30% | < 30% | – | CC(C)Cc1cc(F)c(-c2nn[nH]n2)c(N2C[C@H](C)N(Cc3cccnn3)[C@@H](C)C2)c1 [Compound A-187, 3-[[(2S,6S)-4-[3-fluoro-5-isobutyl-2-(2H-tetrazol-5-yl)-phenyl]-2,6-dimeth-yl-piperazin-1-yl]-methyl]pyridazine]
5.91 | < 30% | < 30% | – | CC(C)Cc1ccc(-c2nn[nH]n2)c(N2CCCN(Cc3cccnn3)CC2)c1 [Compound A-230, 1-[5-isobutyl-2-(2H-tetrazol-5-yl)-phenyl]-4-(pyrid-azin-3-ylmethyl)-1,4-diazepane]
6.34 | < 30% | < 30% | – | CCc1cc(OC(C)C)cc(N2CCN(Cc3nc4ccccc4s3)CC2)c1-c1nn[nH]n1 [Compound A-120, 2-[[4-[3-ethyl-5-iso-propoxy-2-(2H-tetrazol-5-yl)phen-yl]piperazin-1-yl]-methyl]-1,3-benzo-thiazole]
5.41 | < 30% | < 30% | – | C/C=C/c1ccc(-c2nn[nH]n2)c(N2CCN(Cc3nc4ccccc4n3C)CC2)c1 [Compound A-18, 1-methyl-2-[[4-[5-[(E)-prop-1-enyl]-2-(2H-tetrazol-5-yl)-phenyl]piperazin-1-yl]methyl]benz-imidazole]
6.75 | < 30% | < 30% | – | COc1ccnc(CN2CCN(c3cc(CC(C)C)cc(F)c3-c3nn[nH]n3)CC2)c1 [Compound A-199, 1-[3-fluoro-5-isobutyl-2-(2H-tetrazol-5-yl)phen-yl]-4-[(4-methoxy-2-pyridyl)methyl]-piperazine]
5.97 | < 30% | < 30% | – | COc1c(C)cnc(CN2CCN(c3cc(CC(C)C)cc(F)c3-c3nn[nH]n3)CC2)c1C [Compound A-200, 1-[3-fluoro-5-isobutyl-2-(2H-tetrazol-5-yl)phen-yl]-4-[(4-methoxy-3,5-dimethyl-2-pyridyl)methyl]-piperazine]
5.15 | < 30% | < 30% | – | c1ccc2sc(CN3CCN(c4cc(N5CCOCC5)ccc4-c4nn[nH]n4)CC3)nc2c1 [Compound A-67, 4-[3-[4-(1,3-benzo-thiazol-2-ylmethyl)-piperazin-1-yl]-4-(2H-tetrazol-5-yl)-phenyl]morpholine]
5.23 | < 30% | < 30% | – | Cc1csc2nc(CN3CCN(c4cc(CC(C)C)ccc4-c4nn[nH]n4)CC3)cc(=O)n12 [Compound A-75, 7-[[4-[5-isobutyl-2-(2H-tetrazol-5-yl)phenyl]piperazin-1-yl]methyl]-3-methyl-thiazolo[3,2-a]pyrimidin-5-one]
5.54 | < 30% | 30 to 50% | 4.87 | CC(C)Cc1ccc(-c2nn[nH]n2)c(N2CCN(Cc3cc4ccccc4n(C)c3=O)CC2)c1 [Compound A-77, 3-[[4-[5-isobutyl-2-(2H-tetrazol-5-yl)-phenyl]piperazin-1-yl]methyl]-1-methyl-quinolin-2-one]
5.23 | < 30% | < 30% | 4.44 | CCS(=O)(=O)NC(=O)c1ccc(OC(C)C)cc1N1CCN(Cc2nc3ccccc3s2)CC1 [Compound A-40, 2-[4-(1,3-benzothiazol-2-ylmethyl)piperazin-1-yl]-N-ethylsulfonyl-4-isopropoxy-benzamide]
5.55 | < 30% | < 30% | – | CCS(=O)(=O)NC(=O)c1ccc(OC(C)C)cc1CN1CCN(c2nc3ccccc3s2)CC1 [Compound A-39, 2-[[4-(1,3-benzothiazol-2-yl)piperazin-1-yl]methyl]-N-ethylsulfonyl-4-isopropoxy-benzamide]
6.41 | < 30% | < 30% | – | Fc1cc(C2CC2)cc(N2CCN(Cc3nc4ccccc4s3)CC2)c1-c1nn[nH]n1 [Compound A-125, 2-[[4-[5-cycloprop-yl-3-fluoro-2-(2H-tetrazol-5-yl)phen-yl]piperazin-1-yl]-methyl]-1,3-benzo-thiazole]
6.49 | < 30% | < 30% | – | CC(C)Cc1cc(F)c(-c2nn[nH]n2)c(N2CCN(Cc3cccnn3)[C@H](C)C2)c1 [Compound A-175, 3-[[(2R)-4-[3-fluoro-5-isobutyl-2-(2H-tetrazol-5-yl)phenyl]-2-meth-yl-piperazin-1-yl]-methyl]pyridazine]

SMILES | pIC50 (human AT2R fused to Cb23) | inhibition at 1 µM (human AT1R) | inhibition at 10 µM (human AT1R) | pIC50 (human AT1R)
CC(C)COc1ccc(-c2nn[nH]n2)c(N2CCN(Cc3nc4ccccc4s3)CC2)c1 [Compound A-53, 2-[[4-[5-isobutoxy-2-(2H-tetrazol-5-yl)phenyl]piperazin-1-yl]methyl]-1,3-benzothiazole] | 5.12 | < 30% | < 30% | 4.34
